Where “and” joins values, the source holds several entries; their conditions need not be identical. Identical values can stand only once.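 Results reflect a 48-hour exposure of cells in 96-well plates to compound at five concentrations. Abbreviation: GI50, concentration required for 50% inhibition of growth.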 Calls of active or inactive are those of the source. Cut-off read from the data, not from the text of the source: active = GI50 up to about 1.1 µM and inactive = higher.
Legend:
Assay in all cases: inhibition of tumour cell growth, NCI panel, 48 h
LXFL 529 = test system: LXFL 529
MOLT-4 = test system: MOLT-4
HCT-116 = test system: HCT-116
OVCAR-8 = test system: OVCAR-8
NCI-H522 = test system: NCI-H522
SW-620 = test system: SW-620
OVCAR-4 = test system: OVCAR-4
DMS-114 = test system: DMS-114
HCT-15 = test system: HCT-15
NCI-H23 = test system: NCI-H23
SNB-78 = test system: SNB-78
CAKI-1 = test system: CAKI-1
DMS-273 = test system: DMS-273
U-251 = test system: U-251
RXF 393 = test system: RXF 393
SNB-75 = test system: SNB-75
CCRF-CEM = test system: CCRF-CEM
HT-29 = test system: HT-29
M19-MEL = test system: M19-MEL
M14 = test system: M14
HOP-92 = test system: HOP-92
HL-60 = test system: HL-60
RPMI-8226 = test system: RPMI-8226
SF-539 = test system: SF-539
SK-MEL-5 = test system: SK-MEL-5
SR = test system: SR
NCI-H460 = test system: NCI-H460
OVCAR-5 = test system: OVCAR-5
UACC-62 = test system: UACC-62
Malme-3M = test system: Malme-3M
SN12C = test system: SN12C
NCI-H226 = test system: NCI-H226
K562 = test system: K562
786-0 = test system: 786-0
EKVX = test system: EKVX
DLD-1 = test system: DLD-1
SK-OV-3 = test system: SK-OV-3
ACHN = test system: ACHN
SF-295 = test system: SF-295
SK-MEL-28 = test system: SK-MEL-28
A549 = test system: A549
SF-268 = test system: SF-268
OVCAR-3 = test system: OVCAR-3
KM12 = test system: KM12
HOP-62 = test system: HOP-62
COLO 205 = test system: COLO 205
TK-10 = test system: TK-10
UO-31 = test system: UO-31
IGROV-1 = test system: IGROV-1
LOX IMVI = test system: LOX IMVI
UACC-257 = test system: UACC-257
KM-20L2 = test system: KM-20L2
SNB-19 = test system: SNB-19
A498 = test system: A498
XF498 = test system: XF498
HCC 2998 = test system: HCC 2998
SK-MEL-2 = test system: SK-MEL-2

## NCCSSC/C=C\CSSCCN
LXFL 529
  GI50: 23.9 µM (inactive) and 20.1 µM (inactive)
MOLT-4
  GI50: 18.6 µM (inactive) and 15.5 µM (inactive)
HCT-116
  GI50: 40.3 µM (inactive) and 36.8 µM (inactive)
OVCAR-8
  GI50: 17.6 µM (inactive) and 27.2 µM (inactive)
NCI-H522
  GI50: 15.7 µM (inactive) and 15.5 µM (inactive)
SW-620
  GI50: 16.2 µM (inactive) and 13.5 µM (inactive)
OVCAR-4
  GI50: 18.8 µM (inactive) and 26.7 µM (inactive)
DMS-114
  GI50: 30.8 µM (inactive) and 20 µM (inactive)
HCT-15
  GI50: 46.9 µM and 34.3 µM
NCI-H23
  GI50: 29.6 µM (inactive) and 40.7 µM (inactive)
SNB-78
  GI50: 35.2 µM (inactive) and 28.4 µM (inactive)
CAKI-1
  GI50: 33.7 µM (inactive) and 38.8 µM (inactive)
DMS-273
  GI50: 41.1 µM (inactive) and 22 µM (inactive)
U-251
  GI50: 34.4 µM (inactive) and 20.6 µM (inactive)
RXF 393
  GI50: 54.1 µM (inactive) and 35.9 µM (inactive)
SNB-75
  GI50: 34.8 µM (inactive) and > 53.3 µM (inactive)
CCRF-CEM
  GI50: 5.56 µM (inactive)
HT-29
  GI50: 26.6 µM (inactive) and 34.6 µM (inactive)
M19-MEL
  GI50: 50.9 µM (inactive) and 29.4 µM (inactive)
M14
  GI50: 17.8 µM (inactive) and 31.5 µM (inactive)
HOP-92
  GI50: 38 µM (inactive) and 41.6 µM (inactive)
HL-60
  GI50: 7.06 µM (inactive) and 14.1 µM (inactive)
RPMI-8226
  GI50: 26.2 µM (inactive) and 21.9 µM (inactive)
SF-539
  GI50: 29.6 µM (inactive) and 18.1 µM (inactive)

## Brc1cccc(C2SCc3nc4ccccc4n32)c1 (stereo unspecified)
SK-MEL-5
  GI50: 6.4 µM (inactive)
LXFL 529
  GI50: 20.6 µM (inactive)
MOLT-4
  GI50: 22.6 µM (inactive)
HCT-116
  GI50: 14.5 µM (inactive)
OVCAR-8
  GI50: 22.5 µM (inactive)
SR
  GI50: 15.7 µM (inactive)
NCI-H460
  GI50: 23.6 µM (inactive)
OVCAR-5
  GI50: 6.01 µM (inactive)
UACC-62
  GI50: 12.9 µM (inactive)
Malme-3M
  GI50: 24 µM (inactive)
SN12C
  GI50: 13.8 µM (inactive)
NCI-H522
  GI50: 13.9 µM (inactive)
NCI-H226
  GI50: 11.2 µM (inactive)
K562
  GI50: 9.98 µM (inactive)
786-0
  GI50: 17.5 µM (inactive)
EKVX
  GI50: 18.7 µM (inactive)
DLD-1
  GI50: 12.9 µM (inactive)
SW-620
  GI50: 31.8 µM (inactive)
SK-OV-3
  GI50: 21.6 µM (inactive)
OVCAR-4
  GI50: 19 µM (inactive)
DMS-114
  GI50: 13.7 µM (inactive)
HCT-15
  GI50: 15.2 µM
ACHN
  GI50: 16.3 µM (inactive)
SF-295
  GI50: 27.1 µM (inactive)
SK-MEL-28
  GI50: 17.1 µM (inactive)
NCI-H23
  GI50: 13.9 µM (inactive)
SNB-78
  GI50: 28.3 µM (inactive)
CAKI-1
  GI50: 30.2 µM (inactive)
U-251
  GI50: 17 µM (inactive)
RXF 393
  GI50: 5.93 µM (inactive)
SNB-75
  GI50: 0.0533 µM (active)
A549
  GI50: 32.7 µM (inactive)
SF-268
  GI50: 33.5 µM (inactive)
OVCAR-3
  GI50: 15.2 µM (inactive)
KM12
  GI50: 16.1 µM (inactive)
CCRF-CEM
  GI50: 26.2 µM (inactive)
HOP-62
  GI50: 15.3 µM (inactive)
HT-29
  GI50: 20.6 µM (inactive)
M19-MEL
  GI50: 18.2 µM (inactive)
COLO 205
  GI50: 19.1 µM (inactive)
M14
  GI50: 22.5 µM (inactive)
TK-10
  GI50: 25.1 µM (inactive)
UO-31
  GI50: 9.46 µM (inactive)
HOP-92
  GI50: 11.1 µM (inactive)
HL-60
  GI50: 7.94 µM (inactive)
IGROV-1
  GI50: 21.7 µM (inactive)
RPMI-8226
  GI50: 12.5 µM (inactive)
LOX IMVI
  GI50: 14.6 µM (inactive)
SF-539
  GI50: 20.8 µM (inactive)

## N#CC(c1ccc(Cl)cc1)c1c(=O)[nH]c2ccc(N)cc2[n+]1[O-] (stereo unspecified)
SK-MEL-5
  GI50: > 100 µM (inactive)
LXFL 529
  GI50: > 100 µM (inactive)
MOLT-4
  GI50: > 100 µM (inactive)
HCT-116
  GI50: > 100 µM (inactive)
SR
  GI50: > 100 µM (inactive)
UACC-62
  GI50: > 100 µM (inactive)
NCI-H522
  GI50: > 100 µM (inactive)
NCI-H226
  GI50: > 100 µM (inactive)
K562
  GI50: > 100 µM (inactive)
UACC-257
  GI50: > 100 µM (inactive)
786-0
  GI50: > 100 µM (inactive)
EKVX
  GI50: > 100 µM (inactive)
DLD-1
  GI50: > 100 µM (inactive)
SW-620
  GI50: > 100 µM (inactive)
SK-OV-3
  GI50: > 100 µM (inactive)
ACHN
  GI50: > 100 µM (inactive)
SF-295
  GI50: > 100 µM (inactive)
SK-MEL-28
  GI50: > 100 µM (inactive)
CAKI-1
  GI50: > 100 µM (inactive)
DMS-273
  GI50: > 100 µM (inactive)
SNB-75
  GI50: > 100 µM (inactive)
A549
  GI50: > 100 µM (inactive)
SF-268
  GI50: > 100 µM (inactive)
OVCAR-3
  GI50: > 100 µM (inactive)
KM12
  GI50: > 100 µM (inactive)
CCRF-CEM
  GI50: > 100 µM (inactive)
HT-29
  GI50: > 100 µM (inactive)
M19-MEL
  GI50: > 100 µM (inactive)
M14
  GI50: > 100 µM (inactive)
TK-10
  GI50: > 100 µM (inactive)
KM-20L2
  GI50: > 100 µM (inactive)
HOP-92
  GI50: > 100 µM (inactive)
HL-60
  GI50: > 100 µM (inactive)
IGROV-1
  GI50: > 100 µM (inactive)
RPMI-8226
  GI50: > 100 µM (inactive)
LOX IMVI
  GI50: > 100 µM (inactive)
SF-539
  GI50: > 100 µM (inactive)

## COc1cc2c(cc1OC)-c1cc3cc(OC)c(OC)cc3n1CC2
SNB-19
  GI50: 25.8 µM (inactive)
LXFL 529
  GI50: 54.8 µM (inactive)
MOLT-4
  GI50: > 100 µM (inactive)
HCT-116
  GI50: 32.4 µM (inactive)
A498
  GI50: 14.4 µM (inactive)
OVCAR-8
  GI50: 24.1 µM (inactive)
SR
  GI50: > 100 µM (inactive)
NCI-H460
  GI50: 36 µM (inactive)
OVCAR-5
  GI50: > 100 µM (inactive)
UACC-62
  GI50: 85.5 µM (inactive)
Malme-3M
  GI50: 23.8 µM (inactive)
SN12C
  GI50: > 100 µM (inactive)
NCI-H522
  GI50: 32.5 µM (inactive)
NCI-H226
  GI50: 33.7 µM (inactive)
K562
  GI50: 26.3 µM (inactive)
UACC-257
  GI50: 56 µM (inactive)
XF498
  GI50: 18.9 µM (inactive)
786-0
  GI50: 23.4 µM (inactive)
EKVX
  GI50: > 100 µM (inactive)
DLD-1
  GI50: 58.2 µM (inactive)
SW-620
  GI50: 33.9 µM (inactive)
SK-OV-3
  GI50: 30.5 µM (inactive)
OVCAR-4
  GI50: 22.7 µM (inactive)
DMS-114
  GI50: 72.3 µM (inactive)
ACHN
  GI50: 31.6 µM (inactive)
SF-295
  GI50: 13.2 µM (inactive)
SK-MEL-28
  GI50: 34 µM (inactive)
NCI-H23
  GI50: 81.1 µM (inactive)
SNB-78
  GI50: 36.8 µM (inactive)
CAKI-1
  GI50: 55.7 µM (inactive)
U-251
  GI50: 37.7 µM (inactive)
HCC 2998
  GI50: 61 µM (inactive)
SNB-75
  GI50: 18.5 µM (inactive)
A549
  GI50: 50.2 µM (inactive)
SF-268
  GI50: 81.5 µM (inactive)
OVCAR-3
  GI50: > 100 µM (inactive)
KM12
  GI50: 38.5 µM (inactive)
CCRF-CEM
  GI50: > 100 µM (inactive)
HOP-62
  GI50: 31.6 µM (inactive)
HT-29
  GI50: 16.6 µM (inactive)
SK-MEL-2
  GI50: > 100 µM (inactive)
M19-MEL
  GI50: > 100 µM (inactive)
COLO 205
  GI50: 32.4 µM (inactive)
M14
  GI50: 23.4 µM (inactive)
TK-10
  GI50: 19.9 µM (inactive)
UO-31
  GI50: > 100 µM (inactive)
KM-20L2
  GI50: 21.6 µM (inactive)
HOP-92
  GI50: 60.3 µM (inactive)
HL-60
  GI50: > 100 µM (inactive)
IGROV-1
  GI50: 90.8 µM (inactive)
RPMI-8226
  GI50: 71.8 µM (inactive)

From ChEMBL document CHEMBL1201862, “PubChem BioAssay data set” (2004)
